Reference: US20060172993A1 (priority 2002, published 2006)
Marks after values point to notes of the source that are not given here.

Experiments:
[1] = tested on: Patients diagnosed with Alzheimer's Disease; experiment: CIBIC-plus (Clinician's Interview Based Impression of Change Plus Family Input); type: in vivo, human
Protocol: Subjects in the Placebo group received 21 weeks (5 months) of placebo medication.
The CIBIC-plus score was a second primary variable. An independent, experienced and properly trained clinician provided a global impression of the subject's deterioration or improvement over the course of the trial, based on separate interviews with the subject and caregivers. If helpful, the CIBIC rater audiotaped or videotaped the baseline interview for future reference.
The CIBIC-plus was performed at visit 2, 3, 4, and 5 (baseline, week 4, week 13, and month 5 or upon early discontinuation of trial medication intake). Only a trained CIBIC rater performed the test.
For ordinal categorical variables such as the CIBIC-plus score, the Van Elteren test controlling for investigator was used for the between group comparison. For the nominal data (e.g., events rates), the Cochran-Mantel-Haenszel test for general association controlling for investigator was used. A linear contrast on the proportion of patients that stay the same or improve was used to test for increasing response with increasing dose.

humans = details: cited from earlier work

## COc1ccc2c3c1O[C@H]1C[C@@H](O)C=C[C@@]31CCN(C)C2 [GAL, galantamine]
[1]; 8 mg/day, LOCF
  CIBIC-plus at Month 5 improved/no change, % of patients: (53%)
[1]; 8 mg/day, observed case
  CIBIC-plus at Month 5 improved/no change, % of patients: (51%)
[1]; 16 mg/day, LOCF
  CIBIC-plus at Month 5 improved/no change, % of patients: (66%)***^†
[1]; 16 mg/day, observed case
  CIBIC-plus at Month 5 improved/no change, % of patients: (68%)***^†
[1]; 16 mg/day, observed case, listed as galantamine
  CIBIC-plus at Month 5 improved/no change, % of patients: 68%
[1]; 24 mg/day, LOCF
  CIBIC-plus at Month 5 improved/no change, % of patients: (64%)***^‡
[1]; 24 mg/day, observed case
  CIBIC-plus at Month 5 improved/no change, % of patients: (64%)***^‡
[1]; 24 mg/day, observed case, listed as galantamine
  CIBIC-plus at Month 5 improved/no change, % of patients: 64%
humans; humans
  Passing the blood-brain barrier: capable of passing the blood-brain barrier in humans
humans; therapeutically effective dosages
  Side effects: no severe side effects
